# From US10668043B2, “Potentiated antimicrobial agents” (priority 2014, dated 2020)
# Key:
# [1] = test system: E. coli; assay: Double dilution test; assay type: cell-based
# From the text: The double dilution test is a MIC measurement test made on successive dilutions of the 2 products of the composition. […] The summary table expresses for each strain and for each dilution of the booster the measured antibiotic MIC.
# The code enabling the results to be interpreted is the following one: no sign “^+” if the MIC is equivalent with and without booster, a sign “^+” if the value is lower with booster.
# [2] = test system: Pasteurella; assay: etest on agar containing the booster; assay type: cell-based
# From the text: The corresponding tests are made based on the usual MIC test: the etest® (Biomerieux) strip is deposited onto the surface of a seeded agar medium in which the booster has been incorporated.
# The control corresponds to the test made without cineol. A control is made in each solvent tested: distilled water, Tween/water and DMSO. • ED control=antibiotic alone in distilled water • DMSO control=antibiotic alone in DMSO • TE control=antibiotic alone in Tween® 80
# Other e-tests are also made on Pasteurella.
compound,measurement,setting,value
"CC1(C)S[C@@H]2[C@H](NC(=O)[C@H](N)c3ccc(O)cc3)C(=O)N2[C@H]1C(=O)O [Amox, amoxicillin]",amoxicillin MIC,"[1]; strain 8151, cineol 5,000 mg/L",8 µg/mL
same,amoxicillin MIC,"[1]; strain 8151, cineol 10,000 mg/L",4^+
same,amoxicillin MIC,"[1]; strain 8151, cineol 25,000 mg/L",4^+
same,amoxicillin MIC,"[1]; strain 8151, cineol 50,000 mg/L",0.25^+
same,amoxicillin MIC,"[1]; strain 8151, cineol […]",8 µg/mL
same,amoxicillin MIC,"[1]; strain 8155, Amox, cineol 0",8 µg/mL
same,amoxicillin MIC,"[1]; strain 8155, cineol 10 mg/L",0.5^+
same,amoxicillin MIC,"[1]; strain 8155, cineol 20 mg/L",8 µg/mL
same,amoxicillin MIC,"[1]; strain 8155, cineol 37.5 mg/L",8 µg/mL
same,amoxicillin MIC,"[1]; strain 8155, cineol 75 mg/L",8 µg/mL
same,amoxicillin MIC,"[1]; strain 8155, cineol 150 mg/L",8 µg/mL
same,amoxicillin MIC,"[1]; strain 8155, cineol 300 mg/L",8 µg/mL
same,amoxicillin MIC,"[1]; strain 8155, cineol 600 mg/L",8 µg/mL
same,amoxicillin MIC,"[1]; strain 8155, cineol 2,500 mg/L",8 µg/mL
same,amoxicillin MIC,"[1]; strain 8155, cineol 5,000 mg/L",8 µg/mL
same,amoxicillin MIC,"[1]; strain 8155, cineol 10,000 mg/L",8 µg/mL
same,amoxicillin MIC,"[1]; strain 8155, cineol 25,000 mg/L",4^
same,amoxicillin MIC,"[1]; strain 8155, cineol 50,000 mg/L",0.25^+
same,amoxicillin MIC,"[1]; strain 8155, cineol […]",8 µg/mL
same,amoxicillin MIC,"[1]; strain 8156, Amox, cineol 0",8 µg/mL
same,amoxicillin MIC,"[1]; strain 8156, cineol 10 mg/L",0.5^+
same,amoxicillin MIC,"[1]; strain 8156, cineol 20 mg/L",8 µg/mL
same,amoxicillin MIC,"[1]; strain 8156, cineol 37.5 mg/L",8 µg/mL
same,amoxicillin MIC,"[1]; strain 8156, cineol 75 mg/L",8 µg/mL
same,amoxicillin MIC,"[1]; strain 8156, cineol 150 mg/L",8 µg/mL
same,amoxicillin MIC,"[1]; strain 8156, cineol 300 mg/L",8 µg/mL
same,amoxicillin MIC,"[1]; strain 8156, cineol 600 mg/L",8 µg/mL
same,amoxicillin MIC,"[1]; strain 8156, cineol 2,500 mg/L",16 µg/mL
same,amoxicillin MIC,"[1]; strain 8156, cineol 5,000 mg/L",8 µg/mL
same,amoxicillin MIC,"[1]; strain 8156, cineol 10,000 mg/L",8 µg/mL
same,amoxicillin MIC,"[1]; strain 8156, cineol 25,000 mg/L",8^
same,amoxicillin MIC,"[1]; strain 8156, cineol 50,000 mg/L",4^+
same,amoxicillin MIC,"[1]; strain 8156, cineol […]",8 µg/mL
same,amoxicillin MIC,"[1]; strain ATCC 25922, Amox, cineol 0",8 µg/mL
same,amoxicillin MIC,"[1]; strain ATCC 25922, cineol 10 mg/L",0.5^+
same,amoxicillin MIC,"[1]; strain ATCC 25922, cineol 20 mg/L",8 µg/mL
same,amoxicillin MIC,"[1]; strain ATCC 25922, cineol 37.5 mg/L",8 µg/mL
same,amoxicillin MIC,"[1]; strain ATCC 25922, cineol 75 mg/L",8 µg/mL
same,amoxicillin MIC,"[1]; strain ATCC 25922, cineol 150 mg/L",8 µg/mL
same,amoxicillin MIC,"[1]; strain ATCC 25922, cineol 300 mg/L",8 µg/mL
same,amoxicillin MIC,"[1]; strain ATCC 25922, cineol 600 mg/L",8 µg/mL
same,amoxicillin MIC,"[1]; strain ATCC 25922, cineol 2,500 mg/L",16 µg/mL
same,amoxicillin MIC,"[1]; strain ATCC 25922, cineol 5,000 mg/L",8 µg/mL
same,amoxicillin MIC,"[1]; strain ATCC 25922, cineol 25,000 mg/L",4^+
same,amoxicillin MIC,"[1]; strain ATCC 25922, cineol 50,000 mg/L",0.06^+
same,amoxicillin MIC,"[1]; strain ATCC 25922, cineol […]",8 µg/mL
same,MIC (e-test),"[2]; strain 14012, 5 mg cineol DMSO",0.094 µg/mL
same,MIC (e-test),"[2]; strain 14012, 5 mg cineol TE",0.094 µg/mL
same,MIC (e-test),"[2]; strain 14012, 5 mg cineol water",0.094 µg/mL
same,MIC (e-test),"[2]; strain 14012, 10 mg cineol TE",0.094 µg/mL
same,MIC (e-test),"[2]; strain 14012, 10 mg cineol water",0.094 µg/mL
same,MIC (e-test),"[2]; strain 14012, DMSO control",0.094 µg/mL
same,MIC (e-test),"[2]; strain 14012, ED control",0.032 µg/mL
same,MIC (e-test),"[2]; strain 14012, TE control",0.19 µg/mL
same,MIC (e-test),"[2]; strain 14013, 5 mg cineol DMSO",0.25 µg/mL
same,MIC (e-test),"[2]; strain 14013, 5 mg cineol TE",0.25 µg/mL
same,MIC (e-test),"[2]; strain 14013, 5 mg cineol water",0.25 µg/mL
same,MIC (e-test),"[2]; strain 14013, 10 mg cineol DMSO",0.25 µg/mL
same,MIC (e-test),"[2]; strain 14013, 10 mg cineol water",0.19 µg/mL
same,MIC (e-test),"[2]; strain 14013, DMSO control",0.19 µg/mL
same,MIC (e-test),"[2]; strain 14013, ED control",0.19 µg/mL
same,MIC (e-test),"[2]; strain 14013, TE control",0.25 µg/mL
same,MIC (e-test),"[2]; strain 14014, 5 mg cineol DMSO",0.094 µg/mL
same,MIC (e-test),"[2]; strain 14014, 5 mg cineol TE",0.094 µg/mL
same,MIC (e-test),"[2]; strain 14014, 5 mg cineol water",0.19 µg/mL
same,MIC (e-test),"[2]; strain 14014, 10 mg cineol TE",0.094 µg/mL
same,MIC (e-test),"[2]; strain 14014, ED Control",0.094 µg/mL
same,MIC (e-test),"[2]; strain 14014, TE control",0.094 µg/mL
